From PMC4775916 (Antimicrobial Agents and Chemotherapy, 2016)
Several values for one entry are separate records, joined by “and”; a condition that tells them apart may be missing. Equal values may be shown once. Read-outs that look alike come from different tables or passages of the source.

Tests used:
VIM-38 [1] = assay: Steady-state kinetics of β-lactam substrate hydrolysis; format: biochemical; details: VIM-38 versus VIM-1
Description: (§1) The hydrolysis of a representative panel of β-lactam substrates was monitored at their respective absorbance wavelengths. The wavelengths and extinction coefficients used were previously described ([34]). The assays were carried out using 50 mM HEPES buffer (pH 7.2) supplemented with 1 μg/ml bovine serum albumin (BSA), 1 μM ZnSO4, and 0.01% Triton X-100. In the case of VIM-1, C-terminally His6-tagged VIM-1 was used for kinetic analyses. Note that no differences were observed between the activities of untagged VIM-1 and C-terminally His6-tagged VIM-1 for the selected antibiotics (data not shown). The initial rates were obtained from the changes in absorbance at various substrate concentrations. Steady-state kinetic parameters (Km and kcat) were determined by fitting the initial velocity data to the Michaelis-Menten equation using GraphPad Prism 5.01 software (see Table S4 in the supplemental material).

VIM-5 [2] = biological target: T1, VIM-5 (Pseudomonas aeruginosa, UniProt A0A0F7KYQ8, A128K/E202A/H201L/K257T/S205R); assay: as above; format: biochemical; details: 50 mM HEPES pH 7.2, apparent for ampicillin and ceftazidime; for Km: read-out: Mean Km ± SD VIM-5
T1 construct: His6 with HRV3C cleavage site (pET-28a) (N, cleaved yes); made in house; host or cells: E. coli BL21(DE3)
Description: as §1

VIM-5 [3] = assay: as above; format: biochemical; details: VIM-5 versus VIM-1
Description: as §1

VIM-38 [4] = biological target: T2, VIM-38 (Pseudomonas aeruginosa, UniProt A0A0F7KYQ8, A128K/A265V/E202A/H201L/K257T/S205R); assay: as above; format: biochemical; details: 50 mM HEPES pH 7.2, apparent for ampicillin and ceftazidime; for Km: read-out: Mean Km ± SD VIM-38
T2 construct: The N- and C- terminal residues of the mature enzymes are labelled 26; His6 with HRV3C cleavage site (pET-28a) (N, cleaved yes); made in house; host or cells: E. coli BL21(DE3)
Description: as §1

VIM-5 [5] = test system: VIM-5; set-up: method as in Garcar et al. (6); details: previous studies ref Garcar et al. (6), cited from earlier work
VIM-2 [6] = format: biochemical; details: VIM-2 versus VIM-1
Description: as §1

VIM-1 [7] = biological target: T3, VIM-1 (Pseudomonas aeruginosa, UniProt A0A0F7KYQ8); details: previous studies ref Franceschini et al. (4), cited from earlier work
T3 construct: The N- and C- terminal residues of the mature enzymes are labelled 26; made in house

VIM-2 [8] = test system: VIM-2; set-up: method as in Poirel et al. (5); details: previous studies ref Poirel et al. (5), cited from earlier work
VIM-1 [9] = biological target: T3, VIM-1; assay: Steady-state kinetics of β-lactam substrate hydrolysis; format: biochemical; details: C-terminally His6-tagged VIM-1; 50 mM HEPES pH 7.2; apparent for ampicillin and ceftazidime
Description: as §1

VIM-1 [10] = biological target: T3, VIM-1; assay: Nitrocefin hydrolysis kinetics before thermal denaturation and after refolding; format: biochemical
Description: (§2) Circular dichroism (CD) analyses were carried out using a Chirascan CD spectrophotometer (Applied Photophysics) equipped with a Peltier temperature-controlled cell holder. CD measurements were collected in the range of 185 to 260 nm; spectra were baseline corrected and smoothed using a Savitzky-Golay filter. Data were normalized at 207 nm to account for differences in protein concentrations ([38]), and the estimation of secondary structure content was performed with Dichro Web ([39]) using the CONTIN Analysis Programme (reference set 6) ([40]). Melting temperatures (Tm) of the recombinant enzymes were determined by monitoring temperature-induced changes in the CD signal at 222 nm. The temperature was increased by 1°C per min, and the CD signal was recorded at temperatures ranging from 25°C to 92°C. The samples were then cooled from 92°C to 25°C at the same rate, and a CD spectrum of the refolded proteins was determined. The activity of the enzymes was recorded before thermal denaturation and after refolding by monitoring nitrocefin hydrolysis. The thermal denaturation data were fitted to a Boltzmann sigmoidal curve by using GraphPad Prism 5.0 software. CD spectra and thermal denaturation curves are shown in Fig. 2 and in Tables S2 and S3 in the supplemental material.

VIM-2 [11] = biological target: T4, VIM-2 (Escherichia coli, UniProt Q5U7L7); assay: as above; format: biochemical
T4 construct: His6 (N, cleaved yes); made in house
Description: as §2

VIM-4 [12] = biological target: T5, VIM-4 (Pseudomonas aeruginosa, UniProt A0A0F7KYQ8, S205R); assay: as above; format: biochemical
T5 construct: His6 (N, cleaved yes); made in house
Description: as §2

VIM-5 [13] = biological target: T1, VIM-5; assay: as above; format: biochemical
Description: as §2

VIM-38 [14] = biological target: T2, VIM-38; assay: as above; format: biochemical
Description: as §2

VIM-1 [15] = biological target: T3, VIM-1; assay: Inhibition of enzyme-mediated nitrocefin hydrolysis; format: biochemical; details: read-out: IC50 VIM-1 (H224, S228); for IC50 VIM-4 (H224, R228): 10 min preincubation
Description: (§3) Inhibitors were prepared as reported previously ([36], [41]). Enzyme-mediated hydrolysis of nitrocefin was monitored by determining the changes in absorbance at 495 nm, as previously described ([36], [37]). Residual activities were first determined at a 100 μM inhibitor concentration. […] The residual activities were obtained at increasing inhibitor concentrations (0.2 to 2,000 μM); the data were analyzed using GraphPad Prism 5.01 software.

VIM-2 [16] = assay: as above; format: biochemical; details: VIM-2 versus VIM-5 and VIM-38
Description: as §3

VIM-38 [17] = assay: as above; format: biochemical; details: VIM-38 versus VIM-1
Description: as §3

VIM-2 [18] = biological target: T4, VIM-2; assay: as above; format: biochemical; details: read-out: IC50 VIM-2 (Y224, R228)
Description: as §3

VIM-4 [19] = biological target: T5, VIM-4; assay: as above; format: biochemical; details: for IC50: read-out: IC50 VIM-4 (H224, R228)
Description: as §3

VIM-5 [20] = biological target: T1, VIM-5; assay: as above; format: biochemical
Description: as §3

VIM-5 [21] = assay: as above; format: biochemical; details: VIM-5 versus VIM-1
Description: as §3

VIM-38 [22] = biological target: T2, VIM-38; assay: as above; format: biochemical
Description: as §3

VIM-2 [23] = biological target: T4, VIM-2; assay: 1H CPMG NMR binding assay (thiomandelic acid reporter ligand displacement); details: 50 μM thiomandelic acid, 50 μM enzyme, 50 mM Tris-D11 pH 7.5, read-out: KD app VIM-2
Description: (§4) Binding assays were carried out using ^1H-edited Carr-Purcell-Meiboom-Gill (CPMG) nuclear magnetic resonance (NMR) analyses. Spectra were recorded by using a Bruker AVIII 600-MHz NMR spectrometer equipped with a BB-F/^1H Prodigy N2 cryoprobe using 3-mm Match NMR tubes (Cortectnet). The PROJECT-CPMG sequence (90°x-[τ-180°y-τ-90°y-τ-180°y-τ]n-acq) was applied, and water suppression was achieved by presaturation. […] Assays were conducted using 50 mM Tris-D11 (pH 7.5) supplemented with 0.02% NaN3 in 90% H2O and 10% D2O. Equilibrium dissociation constant (KD) measurements for the reporter ligand (50 μM thiomandelic acid) and inhibitors (0 to 300 μM) were carried out as previously reported ([43]). Data were processed with Bruker 3.1 software and fitted by using Origin Pro8.5.1 (see Table S5 in the supplemental material).
(§5) *Apparent kinetic parameters were reported for ampicillin and ceftazidime hydrolysis. #C-terminal His -tagged […]
(§6) VIM-1 was used for kinetic analyses.
(§7) Table S5. Apparent KD curve fitting for the binding of inhibitors (1) and (2) to VIM-2 and […]
(§8) Apparent KD fitting as monitored by 1H CPMG NMR spectra of the signal recovery of thiomandelic acid (50 μM) upon addition of increasing concentrations of 1 and 2 with a final enzyme concentration of 50 μM VIM-2/VIM-5. Assays were conducted in 50 mM Tris-D11 (pH […]
(§9) (also on this page, place not known: K D Tris-D 11 His6-tagged V0 (µM/ s) NN OHO % thiomandelic acid displacement µM % thiomandelic acid displacement) […]

VIM-5 [24] = biological target: T1, VIM-5; assay: as above
Description: as §4, §5, §6, §7, §8, §9

CO[C@@]1(NC(=O)Cc2cccs2)C(=O)N2C(C(=O)O)=C(COC(N)=O)CS[C@@H]21 [Cefoxitin]
fold increase in kcat/Km of VIM-38 over VIM-1 (VIM-38 [1]): > 7 fold
fold-higher kcat of VIM-38 than VIM-1 (VIM-38 [1]): > 10 fold
kcat VIM-5 (VIM-5 [2]): 460 s⁻¹
Km (VIM-5 [2]): 320 ± 60 µM
fold increase in kcat/Km of VIM-5 over VIM-1 (VIM-5 [3]): > 7 fold
fold-higher kcat of VIM-5 than VIM-1 (VIM-5 [3]): > 10 fold
kcat VIM-38 (VIM-38 [4]): 340 s⁻¹
Km (VIM-38 [4]): 230 ± 60 µM

C[C@@H](O)[C@H]1C(=O)N2C(C(=O)O)=C(SCCN=CN)C[C@H]12 [Imipenem]
kcat VIM-5 (previous study) (VIM-5 [5]): 3.5 s⁻¹
Km (VIM-5 [5]; read-out: Km VIM-5 (previous study)): 12 µM
fold increase in kcat/Km of VIM-2 compared to VIM-1 (VIM-2 [6]): 6 fold
kcat VIM-1 (previous study) (VIM-1 [7]): 2 s⁻¹
Km (VIM-1 [7]; read-out: Km VIM-1 (previous study)): 1.5 µM
kcat VIM-2 (previous study) (VIM-2 [8]): 9.9 s⁻¹
Km (VIM-2 [8]; read-out: Km VIM-2 (previous study)): 10 µM
kcat VIM-1 (VIM-1 [9]): 30 s⁻¹
kcat VIM-5 (VIM-5 [2]): 58 s⁻¹ and 60 s⁻¹
Km (VIM-5 [2]): 58 µM and 60 µM
kcat VIM-38 (VIM-38 [4]): 90 s⁻¹
Km (VIM-38 [4]): 150 ± 20 µM

O=C(Cc1cccs1)N[C@@H]1C(=O)N2C(C(=O)O)=C(/C=C/c3ccc([N+](=O)[O-])cc3[N+](=O)[O-])CS[C@H]12 [Nitrocefin]
kcat VIM-1 after refolding (VIM-1 [10]; after refolding): 12 s⁻¹
kcat VIM-1 pre-heating (VIM-1 [10]; pre-heating): 25 s⁻¹
kcat VIM-2 after refolding (VIM-2 [11]; after refolding): 290 s⁻¹
Km (VIM-2 [11]; pre-heating): 13 ± 1 µM
kcat VIM-2 pre-heating (VIM-2 [11]; pre-heating): 290 s⁻¹
kcat VIM-4 after refolding (VIM-4 [12]; after refolding): 180 s⁻¹
Km (VIM-4 [12]; after refolding, read-out: Km VIM-4 after refolding): 30 ± 2 µM
kcat VIM-4 pre-heating (VIM-4 [12]; pre-heating): 340 s⁻¹
Km (VIM-4 [12]; pre-heating, read-out: Km VIM-4 pre-heating): 45 ± 1 µM
kcat VIM-5 after refolding (VIM-5 [13]; after refolding): 100 s⁻¹
Km (VIM-5 [13]; after refolding, read-out: Km VIM-5 after refolding): 11 ± 1 µM
kcat VIM-5 pre-heating (VIM-5 [13]; pre-heating): 210 s⁻¹
Km (VIM-5 [13]; pre-heating, read-out: Km VIM-5 pre-heating): 45 ± 3 µM
kcat VIM-38 pre-heating (VIM-38 [14]; pre-heating): 690 s⁻¹
Km (VIM-38 [14]; read-out: Km VIM-38 after refolding, after refolding): 40 ± 4 µM
Km (VIM-38 [14]; read-out: Km VIM-38 pre-heating, pre-heating): 55 ± 6 µM
kcat VIM-5 (VIM-5 [2]): 420 s⁻¹
Km (VIM-5 [2]): 50 ± 5 µM
kcat VIM-38 (VIM-38 [4]): 720 s⁻¹
Km (VIM-38 [4]): 70 ± 10 µM

O=C(N[C@H](Cc1c[nH]c2ccccc12)C(=O)O)c1nc(Cl)c2ccccc2c1O [compound 1]
IC50 (VIM-1 [15]): > 1000 µM
fold-higher IC50 of VIM-2 than VIM-5 and VIM-38 (VIM-2 [16]): > 40 fold
better inhibitor of VIM-38 than VIM-1 (IC50 ratio) (VIM-38 [17]): > 500 fold
IC50 (VIM-2 [18]): 90 µM
fold-higher IC50 of VIM-4 than VIM-5 and VIM-38 (VIM-4 [19]; VIM-4 versus VIM-5 and VIM-38): > 40 fold
IC50 (VIM-4 [19]): 200 µM
IC50 (VIM-5 [20]): 2 µM
better inhibitor of VIM-5 than VIM-1 (IC50 ratio) (VIM-5 [21]): > 500 fold
IC50 (VIM-38 [22]): 2 µM
Kd (VIM-2 [23]): 180 µM
Kd (VIM-5 [24]): 140 µM

O=C(N[C@@H](Cc1c[nH]c2ccccc12)C(=O)O)c1nc(Cl)c2ccccc2c1O [compound 2]
IC50 (VIM-1 [15]): 60 µM
IC50 (VIM-2 [18]): 300 µM
IC50 (VIM-4 [19]): 600 µM
IC50 (VIM-5 [20]): 50 µM
IC50 (VIM-38 [22]): 80 µM
Kd (VIM-2 [23]): 330 µM
Kd (VIM-5 [24]): 180 µM
